The source of these data is patent US8337828B2, “Use of thymosin alpha 1, alone or in combination with PTX3 or ganciclovir, for the treatment of cytomegalovirus infection” (priority 2006, dated 2012).

The assay concerns MCMV. In words: MCMV infection in mice, virus titers by standard plaque assay on tissues. The assay is classed as in vivo, BALB/c and C57BL6 mice. The procedure:
BALB/c (FIG. 1a) and C57BL6 (FIG. 1b) mice were infected with 1×10^5 or 5×10^5 PFU of MCMV, respectively. Virus titers were quantified on MEF cells by standard plaque assay on tissues removed at different times (FIG. 1a) or a week after infection (FIG. 1b) and expressed as log 10(mean±standard errors, SE). Thymosin alpha 1 (200 μg/kg given for 7 or 14 days) and GCV (40 mg/kg given three times a week) were administered beginning the day of the infection. Controls received the scrambled peptide. Results are representative of 4 independent experiments. Bars indicate the standard errors. *P<0.05, viral load between treated and untreated mice.
BALB/c or C57BL6 mice were infected with 10^5 or 5×10^5 PFU of MCMV, respectively. Virus titers, expressed as log 10, were quantified on MEF cells by standard plaque assay on lung tissues removed 7 days after the infection. Tα1 (200 μg/kg/daily for a week) and/or GCV (40 mg/kg, three times a week) were administered beginning the day of the infection. Cytokine (pg/ml) levels in culture supernatants of spleen cells (7 days) were determined by ELISA assay. Bars indicate the standard errors. *P<0.05, treated vs untreated mice. Results are representative of 3 independent experiments.
Inbred C57BL6 and BALB/c mice were injected intraperitoneally (i.p.) with 1×10^5 (BALB/c) or 5×10^5 (C57BL6) plaque forming units (PFU) of MCMV. Virus titers were quantified on MEF cells by standard plaque assay on tissues removed a day after treatment. Treatments were as follow: Tα1 ([…]) and PTX3 (1 mg/k/ip) (SIGMA-Tau, Pomezia, Rome, Italy) were given daily for 7 consecutive days beginning the day of the infection. Controls received the scrambled peptide. All organs from uninfected animals were negative viruses. Virus titers are expressed as log 10 (mean±standard errors, SE).
Mice. Wild-type (WT) inbred C57BL6 and BALB/c mice, 8 to 12 weeks old, were purchased from Charles River Breeding Laboratories (Calco, Italy). Pairs of homozygous TLR9-(TLR9−/−), TLR4-(TLR4−/−), and MyD88-(MyD88−/−)-deficient mice (on the C57BL6 background), were bred under specific pathogen-free conditions at the breeding facilities of the University of Perugia, Perugia, Italy. Experiments were performed following protocols approved by the institutional animal committee and in accordance with European Economic Community Council Directive as well as institutional animal care and use guidelines.
Virus, infection and treatments. Stocks of Smith strain MCMV salivary gland extracts were prepared from BALB/c mice and titered in a standard plaque assay on BALB/c murine embryonic fibroblast (MEF) cells (J. Gen. Virol. 2002; 83:2983-2993). Mice were injected intraperitoneally (i.p.) with 1×10^5 (C57BL6) plaque forming units (PFU) of MCMV. Virus titers were quantified on MEF cells by standard plaque assay on tissues removed at different times. Treatments were as follows: Thymosin alpha 1 and the scrambled polypeptide (both from SciClone Pharmaceuticals, San Mateo, CA) were supplied as purified (the endotoxin levels were <0.03 pg/ml, by a standard limulus lysate assay) sterile, lyophilized, acetylated polypeptide. The sequences were as follows: Ac-Ser-Asp-Ala-Ala-Val-Asp-Thr-Ser-Ser-Glu -Ile-Thr-Thr-Lys-Asp-Leu-Lys-Glu-Lys-Lys-Glu-Val-Glu-Glu-Ala-Glu-Asn-O (Tα1) SEQ ID NO:1 and Ac-Ala-Lys-Ser-Asp-Val-Lys-Ala-Glu-Thr-Ser-Ser-Glu-Ile-Asp-Thr-Thr-Glu-Leu -Asp-Glu-Lys-Val-Glu-Val-Lys-Ala-Asn-Glu-OH (scrambled peptide) SEQ ID NO:2. The lyophilized powders were reconstituted in sterile water and 200 μg/kg/i.p. were given daily for 7 or 14 consecutive days beginning the day of the infection. Gancyclovir (GCV) (Cymevene; from Recordati, Milan, Italy) was administered at 40 mg/kg/i.p. three times a week, every other day, beginning 6 h after infection. Controls received the scrambled peptide or the diluent alone.
Plaque assay. Plaque assay was determined on cells grown to subconfluence and incubated with serially diluted virus samples for 2 h at 37° C. (10). […]

Ends that are not written are not given here.

As to “Ac-Ser-Asp-Ala-Ala-Val-Asp-Thr-Ser-Ser-Glu -Ile-Thr-Thr-Lys-Asp-Leu-Lys-Glu-Lys-Lys-Glu-Val-Glu-Glu-Ala-Glu-Asn-O (Ac-SDAAVDTSSEITTKDLKEKKEVEEAEN) [Thymosin alpha 1, acidic peptide present in thymus extract with immunoregulatory properties]”, where the note is “200 μg/kg for 7 days, both susceptible (BALB/c) and resistant (C57BL6) mice”, the “viral load in different visceral organs” value is “significantly decreased the viral load”. The viral load entry (BALB/c mice infected with a higher PFU (data not shown)) is “significantly decreased the viral load”. For the same substance, where the note is “Thymosin alpha 1 given for 14 days, compared with 7 days”, the “viral load in visceral organs” value is reported as “higher”. In addition, the “viral titers in the lung” value (Tα1 alone, 200 μg/kg/ip daily for 7 days, BALB/c or C57BL6 mice) is recorded as “decreased the viral titers”. Moreover, the “viral load in salivary gland and liver” value (resistant (C57BL6) mice, a week after infection) is on record as “particularly evident”.
